Results from patent US20260275323A1, “FULLY GENETICALLY ENCODED NAD+PROTEIN PROBE BASED ON RESONANCE ENERGY TRANSFER,AND PREPARATION METHOD THEREFOR AND USE THEREOF” (SHENZHEN INSTITUTES OF ADVANCED TECHNOLOGY, priority 2021, published 2026).

Key:
[1] = tested on: HEK293 stably transfected cell line; test: Intracellular NAD+ change in HEK293 cell line stably expressing probe NADS1.0 (590/440 emitted light ratio); assay type: cell-based; settings: final concentration 10 nM, 24 h treatment
Experimental: The NAD+ molecular probe provided by the invention can detect changes in the concentration of NAD+ molecules in cells. The coding gene of this probe (NADS1.0) is cloned into the pCDH-CMV-MCS-EF1-Neo vector, and the HEK293 stably transfected cell line is prepared using lentiviral method. […] After 24 h of treatment with the compounds, the DMEM medium (high sugar, phenol red free) is changed to fresh DMEM medium (high sugar, phenol red free, bioluminescent substrate diluted by 1,000-fold) with bioluminescent substrate. The emitted light intensity at 590 nm and 440 nm is measured using Flex Station3 multifunctional microplate reader. According to the detection principle of the probe, the ratio of emitted light intensity at 590 nm and 440 nm indicates the NAD+ concentration in living cells. It is found in the detection that the ratio decreased in cells treated with FK866, indicating a decrease in intracellular NAD+ concentration, while in the NRH-treated cells, the ratio increased, indicating an increase in intracellular NAD+ concentration.

[2] = target: T1, NAD+ probe NADS3.0 (mScarlet mutant-LigA mutant-mNeoGreen mutant fusion), SEQ ID NO. 11; LigA mutant 1 SEQ ID NO. 3 (Enterococcus faecalis, UniProt Q837V6, D286N/K120L/R163D/R68N); test: NAD+ titration of purified FRET probe NADS3.0; assay type: binding; settings: 585/515 nm ratio, excitation 470 nm
T1 construct: purified FRET probe NADS3.0
T1 sequence (Q837V6 6-317 R68N/K120L/R163D/D286N): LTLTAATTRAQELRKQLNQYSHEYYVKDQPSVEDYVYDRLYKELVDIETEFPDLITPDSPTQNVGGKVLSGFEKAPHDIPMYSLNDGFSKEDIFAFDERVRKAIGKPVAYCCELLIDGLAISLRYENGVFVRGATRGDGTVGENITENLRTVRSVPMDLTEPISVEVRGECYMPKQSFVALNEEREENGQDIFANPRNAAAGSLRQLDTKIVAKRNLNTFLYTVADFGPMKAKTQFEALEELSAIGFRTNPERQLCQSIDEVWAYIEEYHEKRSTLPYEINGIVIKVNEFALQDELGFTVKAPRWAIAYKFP
Excerpt: The sequence of NADS3.0 is shown as SEQ ID NO. 11
mScarlet mutant-LigA mutant-mNeoGreen mutant
The sequence of LigA mutant 1 is shown as SEQ ID NO.

[3] = target: T2, NAD+ probe NADS2.0 (mNeoGreen mutant-LigA mutant-cpNluc mutant fusion), SEQ ID NO. 9; LigA mutant SEQ ID NO. 3 (Enterococcus faecalis, UniProt Q837V6, D286N/K120L/R163D/R68N); test: NAD+ titration of purified BRET probe NADS2.0; assay type: binding; settings: 515/440 nm light intensity ratio
T2 construct: purified BRET probe NADS2.0
T2 sequence (Q837V6 6-317 R68N/K120L/R163D/D286N): as above
Excerpt: The sequence of NADS^2.0 is shown as SEQ ID NO. 9
mNeoGreen mutant-LigA mutant-cpNluc mutant
The sequence of LigA1 mutant is shown as SEQ ID NO.

[4] = target: T3, NAD+ probe NADS1.2 (mScarlet mutant-LigA mutant-cpNluc mutant fusion), SEQ ID NO. 7; LigA mutant 1 (DNA ligase LigA mutant), SEQ ID NO. 3 (Enterococcus faecalis, UniProt Q837V6, D286N/K120L/R163D/R68N); test: Response of NAD+ molecular probe NADS1.2 to NAD+ and different NAD+ analogs; assay type: binding; settings: for dynamic range of probe response / response of probe: NADS1.2, NAD+ analogs, 590/440 nm ratio; for dynamic range of probe response: in words
T3 construct: purified BRET probe NADS1.2
T3 sequence (Q837V6 6-317 R68N/K120L/R163D/D286N): as above

[5] = tested on: NAD+ molecular probe NAD1.2; test: Response of NAD+ molecular probe to different NAD+ analogs (590/440 ratio titration); assay type: biochemical; settings: FIG. 4
Experimental: (2) Add 80 μL of probe solution, 10 μL of NAD+ solution or 10 μL of NAD+ analogs solution, and 10 μL of bioluminescent substrate solution into the white 96-well elisa plate, blowing, suction, and mix immediately several times (at least 8 times) with multi-channel pipette; use Flex Station3 multifunctional microplate reader to read the light intensity values at the wavelengths of 440 nm and 590 nm under the luminescence mode, and monitor the values for 5 min continuously, and the average receptor-to-donor luminescence ratio is calculated for this time period.

## O=C(/C=C/c1cccnc1)NCCCCC1CCN(C(=O)c2ccccc2)CC1 [FK866]
[1]
  ratio of emitted light intensity at 590 nm and 440 nm (indicates intracellular NAD+ concentration): decreased

## NC(=O)c1ccc[n+]([C@@H]2O[C@H](COP(=O)([O-])OP(=O)(O)OC[C@H]3O[C@@H](n4cnc5c(N)ncnc54)[C@H](O)[C@@H]3O)[C@@H](O)[C@H]2O)c1 [NAD+]
[2]
  dynamic range: 1.21 fold
[3]
  dynamic range: 1.8 fold

## NC(=O)C1=CN([C@@H]2O[C@H](COP(=O)(O)OP(=O)(O)OC[C@H]3O[C@@H](n4cnc5c(N)ncnc54)[C@H](O)[C@@H]3O)[C@@H](O)[C@H]2O)C=CC1 [NADH]
[4]
  EC50: > 1000 µM

## NC(=O)c1ccc[n+]([C@@H]2O[C@H](COP(=O)([O-])OP(=O)(O)OC[C@H]3O[C@@H](n4cnc5c(N)ncnc54)[C@H](OP(=O)(O)O)[C@@H]3O)[C@@H](O)[C@H]2O)c1 [NADP+]
[5]
  dynamic range of the probe response to the analog: small
[4]
  dynamic range of probe response: small dynamic range

## NC(=O)C1=CN([C@@H]2O[C@H](COP(=O)(O)OP(=O)(O)OC[C@H]3O[C@@H](n4cnc5c(N)ncnc54)[C@H](OP(=O)(O)O)[C@@H]3O)[C@@H](O)[C@H]2O)C=CC1 [NADPH]
[4]
  response of probe: did not respond

## NC(=O)c1cccnc1 [NAM]
[4]
  response of probe: did not respond

## NC(=O)c1ccc[n+]([C@@H]2O[C@H](COP(=O)([O-])O)[C@@H](O)[C@H]2O)c1 [NMN]
[5]
  dynamic range of the probe response to the analog: small
[4]
  dynamic range of probe response: small dynamic range
